According to US12358919B2, “Antibacterial compounds” (Universita' degli Studi di Siena, priority 2019, dated 2025):

How the values were obtained:
[1] = system: polymyxin E1-resistant Acinetobacter baumannii (strain N50) clinical isolate; type: cell-based; details: A. baumannii N50 (colistin-resistant); compound + polymyxin E1
Experimental: Growth inhibition or killing of bacteria was investigated using conventional methods widely described in the scientific literature. Parameters such as the Minimum Inhibitory Concentration (MIC) were determined as described in Clinical Laboratory Standard Institute (CLSI) document M07 “Methods for Dilution Antimicrobial Susceptibility Tests for Bacteria That Grow Aerobically, 11th Edition” (2018). Synergistic activity of the compounds described in the present specification were determined by measuring the variation of the MIC's compound in the absence and presence of a sub-inhibitory concentration of a suitable antibacterial agent, such as polymyxin E1. Furthermore, the Fractional Inhibitory Concentrations (FICs) were measured using a chequerboard analysis to determine the average FIC index (FICI), whose value is known to characterize the interaction between two compounds and/or drugs (≤0.5, synergistic interaction; >0.5 and <2, no interaction, additive effect; ≥2, antagonistic interaction). Furthermore, the selectivity of the compounds was investigated by measuring their cytotoxic effect on mammalian cell lines (e.g. HeLa cells).
“Chequerboard” method was used to further investigate the synergistic activity of pyrazolo[4,3-b]pyridin-6-carboxamides when this compounds are combined with polymyxin E1. […]

[2] = system: Acinetobacter baumannii (N50 strain), multidrug-resistant clinical isolate resistant to polymyxin E1; test: Time-kill curve analysis (bactericidal activity); type: cell-based; details: compound 32 mg/L + polymyxin E1 2 mg/L
Experimental: FIG. 1: bactericidal activity on Acinetobacter baumannii (N50 strain) of polymyxin E1, 2 mg/L (square); polymyxin E1, 2 mg/L+compound Ib 32 mg/L (triangles); control (circles).
Several methods were used to investigate the synergistic activity of the compounds, including (a) the determination of the MIC in the presence of a sub-inhibitory concentration of a suitable antibacterial agent, (b) the determination of the average FICI using a chequerboard analysis and (c) the time-kill curve analysis of a suitable agent (at a sub-inhibitory concentration) in the absence and presence of the pyrazolo[4,3-b]pyridin-6-carboxamide compound at a fixed concentration of 2 or 8 mg/L.
The kinetics of bacterial killing offers an additional mean to characterize the antibacterial activity of compounds, also in combination with other antimicrobial agents. Compounds or a combination thereof are defined as bactericides when the viable bacterial load is decreased by at least 3 log10 (EUCAST, cit.).
This analysis was carried with a multidrug-resistant Acinetobacter baumannii clinical isolate showing resistance to polymyxin E1. The time-kill curves were generated starting from a bacterial inoculum of 10^5 CFU/mL. Bacterial count was determined at several time intervals in the absence (control) or presence of 2 mg/L polymyxin E1 (corresponding to the resistance breakpoint, EUCAST, cit.) supplemented with 32 mg/L of compound Ib (FIG. 1).

CCCCn1c(=O)c(C(=O)NC23CC4CC(CC(C4)C2)C3)c(O)c2nn(C)cc21 [Ib, N-(Adamantan-1-yl)-4-(1-butyl)-4,5-dihydro-7-hydroxy-2-methyl-5-oxo-2H-pyrazolo[4,3-b]pyridin-6-carboxamide]
Average FIC index [1]: 0.30
reduction in the bacterial viable count ([2]; after 30-60 min of incubation): more than 3 log 10
viable count at subsequent time intervals ([2]; up to 24 hours): no viable could be detected
